Where no end group is shown, it is not given here.
Tests used:
CCR5 = target: T1, CCR5 (Homo sapiens, UniProt P51681); assay: BRET CAMYEL cAMP sensor assay of ligand-induced Gαi signaling via CCR5; format: cell-based; settings: n = 3
T1 construct: expressed in transfected cells; host or cells: CHO-K1, CHO-pgsB618 (GAG-minus), HEK293 WT / DeltaSia / sC
Protocol: For quantification of signaling initiated immediate downstream of receptor activation, we used the cAMP binding CAMYEL sensor to perform bioluminescence resonance energy transfer (BRET)-based assays. Shortly, in this assay increased receptor activation leads to an increase in BRET ratio. For detailed information see the Materials and Methods section.
In signaling assays testing the boosting ability of basic peptides, transfected cells were aliquoted into 96-well plates in the presence of 10 µM peptide or PBS vehicle. After R-Luc substrate addition, chemokines were added to reach final concentrations ranging from 0–100 nM (0, 0.1, 1, 10, and 100 nM) and forskolin was applied before reading emission at 475 and 525 nm.
BRET measurements of Gαi signaling and β-arrestin recruitment: Cells were seeded in 6-well plates (500,000 cells/well) and transiently transfected the following day. For BRET measurements of Gαi signaling, cells were transfected with vectors encoding the human chemokine receptors as indicated (160 ng/well) and the CAMYEL sensor (cAMP sensor, YFP-Epac-RLuc) (840 ng/well) using Lipofectamine (6 µL/well). Briefly, DNA was dissolved in 125 µL OPTI-MEM and Lipofectamine was dissolved in 125 µL OPTI-MEM. The DNA and Lipofectamine solutions were combined into a transfection mixture. The transfection mixture was added dropwise to cells incubated in OPTI-MEM (1 mL/well). Transfections were terminated after 5 h by adding 1 mL of fresh culture medium on top of the OPTI-MEM. The following day the cells were loosened from the plates in PBS with 5 mM glucose and subsequently aliquoted in white 96-well iso plates (~25,000 cells/well). When using C21TP variants and defense peptides (hBD2 and histatin), these were added to a final concentration of 10 μM/well, while an equal amount of PBS was added to control cells. The bioluminescence substrate coelenterazine was added to a final conc. of 5 µM. After 10 min, varying ligand concentrations were added. For BRET measurements of Gαi signaling, forskolin was added 5 min after the addition of the ligand, to a final conc. of 5 µM. The plates were kept in the dark at all times. A Perkin Elmer Envision machine was used for measuring the emission signals at 530 and 480 nm. The BRET signal is determined as the ratio eYFP (530 nm)/Rluc (480 nm).
BRET principle with CAMYEL: For quantification of signaling initiated immediately downstream of receptor activation, we used the cAMP binding CAMYEL sensor to perform bioluminescence resonance energy transfer (BRET) based assays. In this assay we measure changes in intracellular cAMP levels in response to receptor activation. Activation of chemokine receptors lead to a decrease in cAMP through inhibition of adenylate cyclase (AC). In the current setup we initially add forskolin that stimulates AC directly to induce an increase in intracellular cAMP, and we then measure the ability of a ligand (chemokine) to counteract the forskolin-induced increase in cAMP. The cAMP sensor (CAMYEL cAMP sensor, YFP-Epac-RLuc) carries the donor Renilla luciferase (Rluc) and the acceptor YFP. Coelenterazine is a substrate for Rluc that will emit light at around 475 nm upon enzymatic cleavage catalyzed by Rluc. When Rluc and YFP are in close proximity, the energy from the emitted light from coelenterazine can be transferred to YFP, resulting in an excitation of YFP, leading to a BRET signal around 525 nm. EPAC is a cAMP binding protein that changes conformation upon cAMP binding. During low cAMP concentrations, Rluc and YFP are near each other, and a strong BRET signal at 525 nm is obtained. When cAMP levels increase, cAMP will bind to EPAC, creating a conformational change, separating Rluc and YFP, reducing the BRET ratio, and increasing the emission from Rluc at 475 nm. Thus, by measuring the ratio between the cAMP-bound (475 nm) and the cAMP-free (525 nm) state of CAMYEL we obtain a measure of receptor activation. […]

T16S17AA-CCR5 = assay: BRET CAMYEL Gαi signaling via T16S17AA-CCR5; format: cell-based, human; settings: CHO cells, n = 3
Protocol: BRET measurements of Gαi signaling and β-arrestin recruitment: Cells were seeded in 6-well plates (500,000 cells/well) and transiently transfected the following day. For BRET measurements of Gαi signaling, cells were transfected with vectors encoding the human chemokine receptors as indicated (160 ng/well) and the CAMYEL sensor (cAMP sensor, YFP-Epac-RLuc) (840 ng/well) using Lipofectamine (6 µL/well). Briefly, DNA was dissolved in 125 µL OPTI-MEM and Lipofectamine was dissolved in 125 µL OPTI-MEM. The DNA and Lipofectamine solutions were combined into a transfection mixture. The transfection mixture was added dropwise to cells incubated in OPTI-MEM (1 mL/well). Transfections were terminated after 5 h by adding 1 mL of fresh culture medium on top of the OPTI-MEM. The following day the cells were loosened from the plates in PBS with 5 mM glucose and subsequently aliquoted in white 96-well iso plates (~25,000 cells/well). […] The BRET signal is determined as the ratio eYFP (530 nm)/Rluc (480 nm).
BRET principle with CAMYEL: For quantification of signaling initiated immediately downstream of receptor activation, we used the cAMP binding CAMYEL sensor to perform bioluminescence resonance energy transfer (BRET) based assays. […] The BRET ratio is determined as the ratio between YFP/Rluc, and an increase in BRET ratio indicates a decrease in cAMP and thus increased chemokine receptor activation. […]

[1] = CHO-K1 cells, 10 µM peptide, chemokine 0-100 nM
[2] = HEK293 WT, DeltaSia and sC cells, 10 µM peptide
[3] = M1-tagged CCR5, HEK293 WT, DeltaSia and sC cells, 10 µM peptide

T1 sequence (P51681 whole entry): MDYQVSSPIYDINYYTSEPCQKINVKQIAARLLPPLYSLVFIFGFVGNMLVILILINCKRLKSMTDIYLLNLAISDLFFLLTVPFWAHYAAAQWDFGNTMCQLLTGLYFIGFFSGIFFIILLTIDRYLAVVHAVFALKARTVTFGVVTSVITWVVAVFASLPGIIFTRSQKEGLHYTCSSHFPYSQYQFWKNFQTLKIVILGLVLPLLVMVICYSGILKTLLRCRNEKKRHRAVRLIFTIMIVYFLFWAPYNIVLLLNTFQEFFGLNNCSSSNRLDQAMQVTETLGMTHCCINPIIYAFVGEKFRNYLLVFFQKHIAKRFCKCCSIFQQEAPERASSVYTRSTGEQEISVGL

| Substance | LogEC50 of CCL5-induced Gαi signaling via CCR5 (CCR5; CHO GAG-plus (WT CHO-K1) cells, CCL5 alone without peptide) | Gαi signaling via CCR5 in DeltaSia cells compared to WT cells (CCR5; HEK293 DeltaSia (ST3GAL1/2 KO)) | Gαi signaling via CCR5 in DeltaSia and sC cells (CCR5; HEK293 DeltaSia and sC, CCL5 oligomerization variants experiment) | Gαi signaling via CCR5 in sC cells compared to WT cells (CCR5; HEK293 sC (C1GALT1 KO)) | Gαi signaling via M1-CCR5 in DeltaSia and sC cells compared to WT cells (CCR5; M1-tagged CCR5, HEK293 DeltaSia and sC) | Gαi signaling via T16S17AA-CCR5 compared to WT-CCR5 (T16S17AA-CCR5) | boosting of CCL5 signaling via CCR5 in GAG-plus (WT) and GAG-minus cells (CCR5; CHO GAG-plus and CHO GAG-minus (CHO-pgsB618) cells, 10 µM peptide) | boosting of CCL5-induced Gαi signaling via CCR5 (CCR5; [1]) | boosting of CCL8-induced Gαi signaling via CCR5 (CCR5; [1]) | effect on CCL3-induced Gαi signaling via CCR5 (CCR5; [1]) | boosting of signaling by CCL5, E26A and E66A via CCR5 (CCR5; HEK293 DeltaSia and sC cells, 10 µM peptide) | boosting of signaling by CCL5, E26A and E66A via CCR5 (CCR5; HEK293 WT cells, 10 µM peptide) | boosting of CCL3 signaling via CCR5 (CCR5; [2]) | boosting of CCL5 signaling via CCR5 (CCR5; [2]) | boosting of CCL8 signaling via CCR5 (CCR5; [2]) | boosting of E66A signaling via CCR5 (CCR5; HEK293 sC cells, 10 µM peptide) | boosting of CCL3-induced signaling via M1-CCR5 (CCR5; [3]) | boosting of CCL5-induced signaling via M1-CCR5 (CCR5; [3]) | boosting of CCL8-induced signaling via M1-CCR5 (CCR5; [3]) | boosting of CCL5 signaling via T16S17AA receptor variant (T16S17AA-CCR5; 10 µM peptide) |
| --- | --- | --- | --- | --- | --- | --- | --- | --- | --- | --- | --- | --- | --- | --- | --- | --- | --- | --- | --- | --- |
| CCL5: human chemokine from Peprotech, overall basic | −7.522 ± 0.639 | significantly impaired | very low | almost abolished | drastically reduced | improved |  |  |  |  |  |  |  |  |  |  |  |  |  |  |
| RKDRGASKTGKKGKGSKGCKRTERSQTPKGP [C21TP^81-111] |  |  |  |  |  |  | boosted | boosted | boosted | not affected | lost | boosting occurs with all three versions of CCL5 | absent | observed in all three cell lines | absent | significantly boosted | not boosted | boosted | not boosted | maintained |

— article PMC11477141, “Chemokine Receptor N-Terminus Charge Dictates Reliance on Post-Translational Modifications for Effective Ligand Capture and Following Boosting by Defense Peptides” (International Journal of Molecular Sciences, 2024)
